Residues, ends and D or L forms follow the SMILES beside them.
What was measured:
Peregrin (Homo sapiens) = target: T1, Peregrin (Homo sapiens) (UniProt P55201); details: Compound concentration 20.0 uM
T1 sequence (whole entry): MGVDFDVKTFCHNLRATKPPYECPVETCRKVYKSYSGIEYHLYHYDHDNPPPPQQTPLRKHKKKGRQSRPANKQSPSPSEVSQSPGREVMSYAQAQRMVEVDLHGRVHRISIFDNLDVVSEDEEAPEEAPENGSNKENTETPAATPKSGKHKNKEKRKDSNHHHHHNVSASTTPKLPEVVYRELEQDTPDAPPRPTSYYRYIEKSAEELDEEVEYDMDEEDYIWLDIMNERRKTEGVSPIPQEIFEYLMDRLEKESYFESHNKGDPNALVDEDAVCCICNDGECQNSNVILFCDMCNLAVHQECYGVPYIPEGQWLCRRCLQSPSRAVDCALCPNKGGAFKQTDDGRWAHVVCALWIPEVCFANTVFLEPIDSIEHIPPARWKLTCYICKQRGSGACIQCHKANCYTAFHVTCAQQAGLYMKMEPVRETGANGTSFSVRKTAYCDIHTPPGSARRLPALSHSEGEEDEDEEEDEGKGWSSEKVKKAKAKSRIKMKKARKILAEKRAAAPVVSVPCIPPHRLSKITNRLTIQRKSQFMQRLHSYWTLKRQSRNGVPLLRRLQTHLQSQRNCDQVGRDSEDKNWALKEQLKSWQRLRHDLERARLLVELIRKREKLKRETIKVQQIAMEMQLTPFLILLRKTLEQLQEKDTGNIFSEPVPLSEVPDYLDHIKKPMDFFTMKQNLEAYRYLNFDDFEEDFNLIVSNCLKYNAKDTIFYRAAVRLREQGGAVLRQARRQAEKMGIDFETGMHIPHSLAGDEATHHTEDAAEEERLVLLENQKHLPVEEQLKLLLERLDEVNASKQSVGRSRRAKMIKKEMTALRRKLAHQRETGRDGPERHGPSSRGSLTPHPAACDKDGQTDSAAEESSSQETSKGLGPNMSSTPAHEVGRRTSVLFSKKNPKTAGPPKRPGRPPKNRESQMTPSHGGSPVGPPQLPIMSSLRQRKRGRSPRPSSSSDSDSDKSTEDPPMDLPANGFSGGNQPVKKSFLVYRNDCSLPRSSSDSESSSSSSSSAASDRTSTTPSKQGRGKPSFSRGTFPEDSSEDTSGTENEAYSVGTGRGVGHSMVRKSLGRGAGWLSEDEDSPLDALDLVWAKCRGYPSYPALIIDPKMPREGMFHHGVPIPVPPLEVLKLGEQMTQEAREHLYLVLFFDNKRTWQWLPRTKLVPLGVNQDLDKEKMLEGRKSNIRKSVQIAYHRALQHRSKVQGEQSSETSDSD

[1] = target: Fibroblast growth factor receptor 2 (Homo sapiens) (UniProt P21802); details: Compound concentration 20.0 uM
Chain of Fibroblast growth factor receptor 2 (Homo sapiens) (P21802 22-821 limits assumed): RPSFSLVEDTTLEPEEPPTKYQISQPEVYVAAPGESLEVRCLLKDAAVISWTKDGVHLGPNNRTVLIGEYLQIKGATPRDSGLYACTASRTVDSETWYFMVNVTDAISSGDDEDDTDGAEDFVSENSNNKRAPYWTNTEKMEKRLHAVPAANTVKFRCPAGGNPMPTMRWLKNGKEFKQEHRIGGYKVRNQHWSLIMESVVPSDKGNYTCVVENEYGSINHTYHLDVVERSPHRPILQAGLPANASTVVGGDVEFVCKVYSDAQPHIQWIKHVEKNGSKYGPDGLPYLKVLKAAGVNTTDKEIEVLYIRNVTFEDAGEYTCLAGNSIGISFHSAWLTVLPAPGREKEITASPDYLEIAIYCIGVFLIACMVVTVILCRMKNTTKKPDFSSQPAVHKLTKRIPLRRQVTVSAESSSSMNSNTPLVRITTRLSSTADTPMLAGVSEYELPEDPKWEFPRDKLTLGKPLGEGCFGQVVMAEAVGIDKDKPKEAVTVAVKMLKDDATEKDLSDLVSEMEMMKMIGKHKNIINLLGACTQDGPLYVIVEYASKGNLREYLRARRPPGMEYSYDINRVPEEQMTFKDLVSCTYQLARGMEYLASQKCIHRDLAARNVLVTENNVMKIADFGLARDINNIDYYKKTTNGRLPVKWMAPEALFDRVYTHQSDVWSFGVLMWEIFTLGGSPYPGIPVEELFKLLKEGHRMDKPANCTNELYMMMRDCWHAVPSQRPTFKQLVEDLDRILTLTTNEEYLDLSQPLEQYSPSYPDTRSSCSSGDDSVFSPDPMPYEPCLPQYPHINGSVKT
Description: Thermal Shift Assay. Domain: start/stop: T457-E768

ΔTm (Peregrin (Homo sapiens))	ΔTm [1]	Compound
-1.25 °C	0.88 °C	CC(=O)N[C@@H](CC(C)C)C(=O)N[C@@H](CCC(=O)O)C(=O)N[C@H](C(=O)N[C@H](C=O)CC(=O)O)C(C)C (Ac-LEVD-aldehyde)
1.22 °C	0.48 °C	Nc1nc(C(F)(F)F)nc2c1nnn2C[C@H]1CN(Cc2nccs2)CCO1
-1.03 °C	-0.22 °C	Cc1cc(C)c(-c2[nH]nc(C)c2C)cc1C(=O)N1CC(c2ccc(C#N)cc2)C1
0 °C	-1.59 °C	NCCCOc1cc2ccccc2cc1C(=O)NCCOc1cc2ccccc2cc1C(=O)Nc1ccc(Cl)cc1O
-1.28 °C	0.57 °C	CC(=O)O[C@]1(C(C)=O)CC[C@H]2[C@@H]3C=C(Cl)C4=CC(=O)[C@@H]5C[C@@H]5[C@]4(C)[C@H]3CC[C@@]21C
1.8 °C	0.18 °C	N#C[C@@H]1CCCN1C(=O)CNC(=O)c1ccnc2ccc(OCCCN3CCN(C(=O)CN4CCN(CC(=O)O)CCN(CC(=O)O)CCN(CC(=O)O)CC4)CC3)cc12
1.04 °C	-1.02 °C	COc1cc2c(cc1-c1c(C)noc1C)[nH]c1nc(C)nc(-c3ccnc4ccccc34)c12
-1.78 °C	0.77 °C	CSCC[C@H](NC(=O)[C@H](CC(=O)O)NC(C)=O)C(=O)N[C@@H](CCC(N)=O)C(=O)N[C@H](C=O)CC(=O)O (Ac-DMQD-aldehyde)
-6.38 °C	-6.45 °C	N=C(N)SCc1ccc(CN2C(=O)C(=O)c3cc(Br)cc(Br)c32)cc1
2.66 °C	0.8 °C	N[C@](CCCCB(O)O)(CCN1CCCCC1)C(=O)O
-0.19 °C	0.15 °C	CCOc1ccc(Cc2cc([C@@H]3O[C@H](CO)[C@@H](O)[C@H](O)[C@H]3O)ccc2Cl)cc1
-3.73 °C	-9.38 °C	NC(=O)C1CN(CCCCC(c2ccc(F)cc2)c2ccc(F)cc2)CCN1CC(=O)Nc1c(Cl)cc(N)cc1Cl (stereo not given)
-0.32 °C	-0.3 °C	O=C(c1cc(Cc2n[nH]c(=O)c3ccccc23)ccc1F)N1CC(CNC2CC2)C1
-1.15 °C	0.48 °C	CC(C)NCC(O)COC(Cn1c2ccccc2c2ccccc21)Cn1c2ccccc2c2ccccc21 (stereo not given)
0.83 °C	0.17 °C	C[C@@H]1CN(Cc2ncccn2)C[C@H]1c1nc2c(cnn2C2CCOCC2)c(=O)[nH]1
-3.55 °C	0.51 °C	COC(=O)C1=C(C(=O)OC)[C@@]2([C@@H](Cc3ccc(C)cc3)Nc3ccccc3)C=C[C@@H]1O2
-1.13 °C	1.04 °C	COc1cc(C(C)C)c2c(c1)S(=O)(=O)N(COc1cc(=O)n3cccc(OCCN4CCCCC4)c3n1)C2=O
1.88 °C	-0.1 °C	N#Cc1cccnc1N1CCN(C(=O)c2cccc(Cc3n[nH]c(=O)c4ccccc34)c2)CC1
-0.85 °C	0.36 °C	N#Cc1ccc(-c2csc(NN=C3CCCC3)n2)cc1
-0.98 °C	-0.25 °C	CCC1CCCCN1C(=O)n1ncc(C(O)(c2ccccc2)c2ccccc2)n1 (stereo not given)
0.65 °C	0.47 °C	CCn1ncc2c(NC3CCOCC3)c(-c3nnc(Cc4sc(C)nc4C)o3)cnc21
0 °C	-10.7 °C	O=C(CCCCCCC(=O)Nc1ccc([C@H]2O[C@@H](CSc3nc(-c4ccccc4)c(-c4ccccc4)o3)C[C@@H](c3ccc(CO)cc3)O2)cc1)NO
-2.81 °C	-0.39 °C	O=C(O)c1cccc(-c2ccc(-c3cn(C(=O)N4CCCCC4Cc4ccccc4)nn3)cc2)c1 (stereo not given)
-1.27 °C	-1.33 °C	Nc1ncnc2c1ncn2[C@@H]1O[C@H](C[C@@H](N)CC[C@H](N)C(=O)O)[C@@H](O)[C@H]1O

Compound	ΔTm (Peregrin (Homo sapiens))	ΔTm [1]
COc1cc(O)c2c(c1)/C=C\C[C@H](O)[C@H](O)C(=O)/C=C\C[C@H](C)OC2=O	-1.29 °C	2.24 °C

From ChEMBL document CHEMBL5724796, “Tm Shift (DSF) assay results for EUbOPEN Chemogenomics Library” (2024)
